What was measured:
BRG-1 = molecular target: T1, BRG-1 (Homo sapiens, UniProt P51532); test: ATPase catalytic activity of BRG-1, ADP-Glo in vitro biochemical assay; conditions: ATPase catalytic activity, 30 nM BRG-1, 400 μM ATP, read-out: BRG1 IP50 (μM)*
T1 construct: made in house; host or cells: High Five insect cells

BRM = molecular target: T2, BRM (Homo sapiens, UniProt P51531); test: ATPase catalytic activity of BRM, ADP-Glo in vitro biochemical assay; conditions: ATPase catalytic activity, 30 nM BRM, 400 μM ATP, read-out: BRM IP50 (μM)*
T2 construct: made in house; host or cells: High Five insect cells
T2 sequence (P51531 whole entry): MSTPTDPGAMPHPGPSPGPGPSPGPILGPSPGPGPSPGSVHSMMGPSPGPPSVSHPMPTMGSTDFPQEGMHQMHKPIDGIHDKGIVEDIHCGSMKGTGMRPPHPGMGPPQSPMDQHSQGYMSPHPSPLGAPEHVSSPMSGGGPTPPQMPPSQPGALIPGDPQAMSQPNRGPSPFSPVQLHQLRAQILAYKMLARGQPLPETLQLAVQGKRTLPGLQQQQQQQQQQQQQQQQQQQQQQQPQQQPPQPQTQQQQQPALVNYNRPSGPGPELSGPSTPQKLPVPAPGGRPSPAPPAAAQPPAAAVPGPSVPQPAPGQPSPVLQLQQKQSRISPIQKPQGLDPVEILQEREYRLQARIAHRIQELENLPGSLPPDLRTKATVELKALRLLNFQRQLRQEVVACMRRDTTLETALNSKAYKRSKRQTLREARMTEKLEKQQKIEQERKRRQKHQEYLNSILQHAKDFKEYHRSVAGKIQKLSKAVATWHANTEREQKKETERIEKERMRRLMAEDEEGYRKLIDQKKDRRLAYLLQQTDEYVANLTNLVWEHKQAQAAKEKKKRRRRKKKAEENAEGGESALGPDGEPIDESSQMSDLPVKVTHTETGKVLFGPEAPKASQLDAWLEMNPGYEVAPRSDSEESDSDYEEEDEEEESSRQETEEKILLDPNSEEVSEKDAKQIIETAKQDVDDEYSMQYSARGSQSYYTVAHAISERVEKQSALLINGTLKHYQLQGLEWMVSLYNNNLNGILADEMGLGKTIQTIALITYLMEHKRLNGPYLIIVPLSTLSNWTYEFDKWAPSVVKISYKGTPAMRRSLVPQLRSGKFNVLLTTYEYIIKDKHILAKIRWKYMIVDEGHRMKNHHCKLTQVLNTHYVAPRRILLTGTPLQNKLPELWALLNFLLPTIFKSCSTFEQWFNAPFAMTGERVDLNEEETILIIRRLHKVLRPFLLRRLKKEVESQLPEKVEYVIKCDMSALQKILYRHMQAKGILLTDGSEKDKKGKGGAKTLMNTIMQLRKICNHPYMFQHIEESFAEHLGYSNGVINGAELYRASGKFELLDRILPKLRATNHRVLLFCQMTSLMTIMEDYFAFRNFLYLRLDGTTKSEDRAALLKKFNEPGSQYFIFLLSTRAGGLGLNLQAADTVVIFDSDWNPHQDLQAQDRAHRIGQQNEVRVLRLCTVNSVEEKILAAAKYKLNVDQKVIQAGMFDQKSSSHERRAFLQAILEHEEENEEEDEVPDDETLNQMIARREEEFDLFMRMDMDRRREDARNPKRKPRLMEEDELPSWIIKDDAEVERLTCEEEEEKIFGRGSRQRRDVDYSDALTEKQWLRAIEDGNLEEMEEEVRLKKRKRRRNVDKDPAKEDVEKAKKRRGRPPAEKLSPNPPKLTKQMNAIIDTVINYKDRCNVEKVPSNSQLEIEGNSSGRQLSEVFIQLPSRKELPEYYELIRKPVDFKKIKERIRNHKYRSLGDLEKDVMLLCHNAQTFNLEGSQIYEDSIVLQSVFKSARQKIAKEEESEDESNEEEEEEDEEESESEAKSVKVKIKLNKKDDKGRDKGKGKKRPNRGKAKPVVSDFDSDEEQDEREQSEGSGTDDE

T1 sequence (P51532 whole entry): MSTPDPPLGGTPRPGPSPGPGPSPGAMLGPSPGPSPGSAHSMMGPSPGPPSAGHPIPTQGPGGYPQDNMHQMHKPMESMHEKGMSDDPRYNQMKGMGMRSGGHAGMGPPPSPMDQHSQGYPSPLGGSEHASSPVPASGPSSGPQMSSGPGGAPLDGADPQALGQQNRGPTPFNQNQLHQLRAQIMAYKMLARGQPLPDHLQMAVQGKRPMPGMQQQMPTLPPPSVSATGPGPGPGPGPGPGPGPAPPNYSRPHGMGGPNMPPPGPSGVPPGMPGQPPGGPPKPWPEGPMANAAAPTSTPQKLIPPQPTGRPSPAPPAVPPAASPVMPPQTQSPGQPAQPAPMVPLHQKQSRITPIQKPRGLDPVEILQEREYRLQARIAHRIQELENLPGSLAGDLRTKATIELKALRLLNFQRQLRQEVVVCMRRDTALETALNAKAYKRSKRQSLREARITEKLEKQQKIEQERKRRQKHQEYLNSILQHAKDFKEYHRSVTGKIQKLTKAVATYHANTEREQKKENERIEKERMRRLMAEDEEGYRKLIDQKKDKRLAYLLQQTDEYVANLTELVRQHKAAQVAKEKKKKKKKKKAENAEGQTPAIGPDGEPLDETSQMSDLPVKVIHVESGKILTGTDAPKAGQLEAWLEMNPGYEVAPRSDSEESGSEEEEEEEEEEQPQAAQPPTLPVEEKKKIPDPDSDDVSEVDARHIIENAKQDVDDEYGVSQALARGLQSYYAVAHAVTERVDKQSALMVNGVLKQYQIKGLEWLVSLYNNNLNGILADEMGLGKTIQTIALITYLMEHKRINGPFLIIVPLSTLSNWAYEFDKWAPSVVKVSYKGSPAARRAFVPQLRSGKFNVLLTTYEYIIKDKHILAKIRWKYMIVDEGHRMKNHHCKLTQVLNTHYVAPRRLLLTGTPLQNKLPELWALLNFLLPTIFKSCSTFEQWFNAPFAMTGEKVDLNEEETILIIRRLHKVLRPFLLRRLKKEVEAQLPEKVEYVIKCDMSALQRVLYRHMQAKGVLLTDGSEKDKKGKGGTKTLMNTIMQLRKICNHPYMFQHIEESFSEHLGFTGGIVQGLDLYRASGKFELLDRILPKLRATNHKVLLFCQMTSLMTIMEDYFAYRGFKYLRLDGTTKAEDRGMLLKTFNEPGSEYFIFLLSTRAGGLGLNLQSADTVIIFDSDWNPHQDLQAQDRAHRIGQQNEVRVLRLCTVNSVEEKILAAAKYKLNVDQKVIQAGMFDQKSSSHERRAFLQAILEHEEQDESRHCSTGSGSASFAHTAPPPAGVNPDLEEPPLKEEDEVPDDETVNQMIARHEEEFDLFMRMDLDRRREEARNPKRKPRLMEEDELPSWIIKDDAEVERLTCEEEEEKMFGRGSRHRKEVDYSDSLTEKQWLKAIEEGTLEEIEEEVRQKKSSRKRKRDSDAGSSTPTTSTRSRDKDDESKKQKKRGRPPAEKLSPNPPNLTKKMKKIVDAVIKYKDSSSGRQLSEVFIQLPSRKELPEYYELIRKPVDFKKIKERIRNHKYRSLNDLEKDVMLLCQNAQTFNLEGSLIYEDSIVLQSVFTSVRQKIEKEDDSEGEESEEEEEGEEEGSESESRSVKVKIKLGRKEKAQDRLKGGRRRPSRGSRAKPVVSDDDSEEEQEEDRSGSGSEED

Row | SMILES | IC50 (BRG-1) [µM] | IC50 (BRM) [µM]
1 | Cn1nccc1C(=O)NCC(=O)Nc1nc(-c2cccc(C#N)c2)cs1 [Compound 32, N-(2-((4-(3-cyanophenyl)thiazol-2-yl)amino)-2-oxoethyl)-1-methyl-1H-pyrazole-5-carboxamide] | > 1 | > 1
2 | CC(C)(C#N)n1ccc(C(=O)NCC(=O)Nc2nc(-c3cccc(C#N)c3)cs2)c1 [Compound 34, N-(2-((4-(3-cyanophenyl)thiazol-2-yl)amino)-2-oxoethyl)-1-(2-cyanopropan-2-yl)-1H-pyrrole-3-carboxamide] | > 0.1 | > 0.01
3 | CC(C)(C)n1ccc(C(=O)NCC(=O)Nc2nc(-c3cccc(C#N)c3)cs2)c1 [Compound 35, 1-(tert-butyl)-N-(2-((4-(3-cyanophenyl)thiazol-2-yl)amino)-2-oxoethyl)-1H-pyrrole-3-carboxamide] | > 0.1 | > 0.1
4 | CC(C)(C)n1ccc(C(=O)NCC(=O)Nc2nc(-c3cccc(C#N)c3)cs2)n1 [Compound 36, 1-(tert-butyl)-N-(2-((4-(3-cyanophenyl)thiazol-2-yl)amino)-2-oxoethyl)-1H-pyrazole-3-carboxamide] | > 0.1 | > 0.1
5 | CC(C)(C)n1cc(C(=O)NCC(=O)Nc2nc(-c3cccc(C#N)c3)cs2)cn1 [Compound 37, 1-(tert-butyl)-N-(2-((4-(3-cyanophenyl)thiazol-2-yl)amino)-2-oxoethyl)-1H-pyrazole-4-carboxamide] | > 1 | > 1
6 | NCCn1ccc(C(=O)NCC(=O)Nc2nc(-c3cccc(-c4ccncc4)c3)cs2)c1 [Compound 38, 1-(2-aminoethyl)-N-(2-oxo-2-((4-(3-(pyridin-4-yl)phenyl)thiazol-2-yl)amino)ethyl)-1H-pyrrole-3-carboxamide] | > 0.1 | > 0.1
7 | O=C(CNC(=O)c1ccn(C2CCNCC2)c1)Nc1nc(-c2cccc(-c3ccncc3)c2)cs1 [Compound 39, N-(2-oxo-2-((4-(3-(pyridin-4-yl)phenyl)thiazol-2-yl)amino)ethyl)-1-(piperidin-4-yl)-1H-pyrrole-3-carboxamide] | > 1 | > 1
8 | CC(C)(CN)n1ccc(C(=O)NCC(=O)Nc2nc(-c3cccc(-c4ccncc4)c3)cs2)c1 [Compound 42, 1-(1-amino-2-methylpropan-2-yl)-N-(2-oxo-2-((4-(3-(pyridin-4-yl)phenyl)thiazol-2-yl)amino)ethyl)-1H-pyrrole-3-carboxamide] | > 0.1 | > 0.01
9 | CC(C)S(=O)(=O)n1ccc(C(=O)NCC(=O)Nc2nc(-c3cccc(-c4ccncc4)c3)cs2)c1 [Compound 43, 1-isopropylsulfonyl-N-[2-oxo-2-[[4-[3-(4-pyridyl)phenyl]thiazol-2-yl]amino]ethyl]pyrrole-3-carboxamide] | > 0.01 | > 0.01
10 | CS(=O)(=O)n1cc(C(=O)NCC(=O)Nc2nc(-c3cccc(-c4ccncc4)c3)cs2)cn1 [Compound 44, 1-(methylsulfonyl)-N-(2-oxo-2-((4-(3-(pyridin-4-yl)phenyl)thiazol-2-yl)amino)ethyl)-1H-pyrazole-4-carboxamide] | > 0.1 | > 0.01
11 | CN(C)S(=O)(=O)n1ccc(C(=O)NCC(=O)Nc2nc(-c3cccc(-c4ccncc4)c3)cs2)c1 [Compound 47, 1-(N,N-dimethylsulfamoyl)-N-(2-oxo-2-((4-(3-(pyridin-4-yl)phenyl)thiazol-2-yl)amino)ethyl)-1H-pyrrole-3-carboxamide] | > 0.01 | > 0.01
12 | CC(=O)n1ccc(C(=O)NCC(=O)Nc2nc(-c3cccc(-c4ccncc4)c3)cs2)c1 [Compound 50, 1-acetyl-N-(2-oxo-2-((4-(3-(pyridin-4-yl)phenyl)thiazol-2-yl)amino)ethyl)-1H-pyrrole-3-carboxamide] | > 0.1 | > 0.1
13 | Cc1cc(-c2cccc(-c3csc(NC(=O)CNC(=O)c4ccn(C(C)(C)C)c4)n3)c2)on1 [Compound 56, 1-(tert-butyl)-N-(2-((4-(3-(3-methylisoxazol-5-yl)phenyl)thiazol-2-yl)amino)-2-oxoethyl)-1H-pyrrole-3-carboxamide] | > 0.01 | > 0.01

Results, then the compound that gave them:

Row | IC50 (BRG-1) [µM] | IC50 (BRM) [µM] | SMILES
14 | > 0.01 | > 0.01 | CS(=O)(=O)n1ccc(C(=O)NCC(=O)Nc2nc(-c3cccc(C#N)c3)cs2)c1 [Compound 33, N-(2-((4-(3-cyanophenyl)thiazol-2-yl)amino)-2-oxoethyl)-1-(methylsulfonyl)-1H-pyrrole-3-carboxamide]
15 | > 0.01 | > 0.01 | NCCS(=O)(=O)n1ccc(C(=O)NCC(=O)Nc2nc(-c3cccc(-c4ccncc4)c3)cs2)c1 [Compound 40, 1-((2-aminoethyl)sulfonyl)-N-(2-oxo-2-((4-(3-(pyridin-4-yl)phenyl)thiazol-2-yl)amino)ethyl)-1H-pyrrole-3-carboxamide]
16 | > 0.01 | < 0.01 | CC(C)(C)n1ccc(C(=O)NCC(=O)Nc2nc(-c3cccc(-c4ccncc4)c3)cs2)c1 [Compound 41, 1-(tert-butyl)-N-(2-oxo-2-((4-(3-(pyridin-4-yl)phenyl)thiazol-2-yl)amino)ethyl)-1H-pyrrole-3-carboxamide]
17 | < 0.01 | < 0.01 | CS(=O)(=O)n1ccc(C(=O)NCC(=O)Nc2nc(-c3cccc(-c4ccncc4)c3)cs2)n1 [Compound 45, 1-(methylsulfonyl)-N-(2-oxo-2-((4-(3-(pyridin-4-yl)phenyl)thiazol-2-yl)amino)ethyl)-1H-pyrazole-3-carboxamide]
18 | < 0.01 | < 0.01 | CS(=O)(=O)n1cnc(C(=O)NCC(=O)Nc2nc(-c3cccc(-c4ccncc4)c3)cs2)c1 [Compound 46, 1-(methylsulfonyl)-N-(2-oxo-2-((4-(3-(pyridin-4-yl)phenyl)thiazol-2-yl)amino)ethyl)-1H-imidazole-4-carboxamide]
19 | < 0.01 | < 0.01 | CS(=O)(=O)n1ccc(C(=O)NCC(=O)Nc2nc(-c3cccc(-c4cccc(CN)c4)c3)cs2)c1 [Compound 53, N-(2-((4-(3′-(aminomethyl)-[1,1′-biphenyl]-3-yl)thiazol-2-yl)amino)-2-oxoethyl)-1-(methylsulfonyl)-1H-pyrrole-3-carboxamide]
20 | < 0.01 | < 0.01 | CS(=O)(=O)n1ccc(C(=O)NCC(=O)Nc2nc(-c3cccc(-c4ccnc(N5CCNCC5)c4)c3)cs2)c1 [Compound 54, 1-(methylsulfonyl)-N-(2-oxo-2-((4-(3-(2-(piperazin-1-yl)pyridin-4-yl)phenyl)thiazol-2-yl)amino)ethyl)-1H-pyrrole-3-carboxamide]
21 | < 0.01 | < 0.01 | Cc1cc(C)cc(-c2cccc(-c3csc(NC(=O)CNC(=O)c4ccn(S(C)(=O)=O)c4)n3)c2)c1 [Compound 55, N-(2-((4-(3′,5′-dimethyl-[1,1′-biphenyl]-3-yl)thiazol-2-yl)amino)-2-oxoethyl)-1-(methylsulfonyl)-1H-pyrrole-3-carboxamide]
22 | < 0.01 | < 0.01 | CC(=O)N(C)c1cc(-c2cccc(-c3csc(NC(=O)CNC(=O)c4ccn(S(C)(=O)=O)c4)n3)c2)ccn1 [Compound 57, N-(2-((4-(3-(2-(N-methylacetamido)pyridin-4-yl)phenyl)thiazol-2-yl)amino)-2-oxoethyl)-1-(methylsulfonyl)-1H-pyrrole-3-carboxamide]

— US20230079819A1, “COMPOUNDS AND USES THEREOF” (Foghorn Therapeutics Inc., priority 2019, published 2023)
